Experimental data reported in PubChem BioAssay AID2060494 (Molecular Pharmacology Branch, DTP, NCI, 2025).
pIC50: −log10 of the molar value. One block for each molecule: values may come before it.

System: 435261-313-R-J1-PDC complex spheroid viability
Assay: Anticancer human tumor 435261-313-R-J1-PDC patient-derived colon adenocarcinoma cell line growth inhibition [GQUAD]
Conditions: for pIC50: curve of first compound; for viability, T/C: stronger effect = lower value
Method in brief: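 Viability of tumor cells grown as complex spheroids with endothelial and stromal cells, exposed to drug combinations. Top concentration at or near clinical Cmax (else 10 microM), diluted in half-log increments.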

[1] = second compound 0.0316 µM, first compound 0.0316 µM
[2] = second compound 0.0316 µM, first compound 0.1 µM
[3] = second compound 0.0316 µM, first compound 0.316 µM
[4] = second compound 0.0316 µM, first compound 1 µM
[5] = second compound 0.0316 µM, first compound 3.16 µM
[6] = second compound 0.0316 µM, first compound 10 µM
[7] = second compound 0.1 µM, first compound 0.0316 µM
[8] = second compound 0.1 µM, first compound 0.1 µM
[9] = second compound 0.1 µM, first compound 0.316 µM
[10] = second compound 0.1 µM, first compound 1 µM
[11] = second compound 0.1 µM, first compound 3.16 µM
[12] = second compound 0.1 µM, first compound 10 µM
[13] = second compound 0.316 µM, first compound 0.0316 µM
[14] = second compound 0.316 µM, first compound 0.1 µM
[15] = second compound 0.316 µM, first compound 0.316 µM
[16] = second compound 0.316 µM, first compound 1 µM
[17] = second compound 0.316 µM, first compound 3.16 µM
[18] = second compound 0.316 µM, first compound 10 µM
[19] = second compound 1 µM, first compound 0.0316 µM
[20] = second compound 1 µM, first compound 0.1 µM
[21] = second compound 1 µM, first compound 0.316 µM
[22] = second compound 1 µM, first compound 1 µM
[23] = second compound 1 µM, first compound 3.16 µM
[24] = second compound 1 µM, first compound 10 µM
[25] = second compound 3.16 µM, first compound 0.0316 µM
[26] = second compound 3.16 µM, first compound 0.1 µM
[27] = second compound 3.16 µM, first compound 0.316 µM
[28] = second compound 3.16 µM, first compound 1 µM
[29] = second compound 3.16 µM, first compound 3.16 µM
[30] = second compound 3.16 µM, first compound 10 µM
[31] = second compound 10 µM, first compound 0.0316 µM
[32] = second compound 10 µM, first compound 0.1 µM
[33] = second compound 10 µM, first compound 0.316 µM
[34] = second compound 10 µM, first compound 1 µM
[35] = second compound 10 µM, first compound 3.16 µM
[36] = second compound 10 µM, first compound 10 µM
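Note: spheroids exposed to the agents for seven days before readout.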
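Throughout, for viability, T/C: percent of vehicle control viability with DMSO wells as 100%.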

Compound: C=CCn1c(=O)c2cnc(Nc3ccc(N4CCN(C)CC4)cc3)nc2n1-c1cccc(C(C)(C)O)n1 + CN(C)c1ccc(Nc2c3ccc(NC(=O)CCN4CCCC4)cc3nc3cc(NC(=O)CCN4CCCC4)ccc23)cc1
pIC50 (second compound 0.0316 µM): < 5.00 | pIC50 (second compound 0.1 µM): < 5.00 | pIC50 (second compound 0.316 µM): 5.12 | pIC50 (second compound 1 µM): < 5.00 | pIC50 (second compound 3.16 µM): < 5.00 | pIC50 (second compound 10 µM): 6.45 | viability, T/C [1]: 128% | viability, T/C [2]: 145% | viability, T/C [3]: 84.1% | viability, T/C [4]: 103% | viability, T/C [5]: 81.8% | viability, T/C [6]: 65.2% | viability, T/C [7]: 96.4% | viability, T/C [8]: 89.1% | viability, T/C [9]: 87.9% | viability, T/C [10]: 69.7% | viability, T/C [11]: 91.7% | viability, T/C [12]: 73% | viability, T/C [13]: 92.7% | viability, T/C [14]: 81.5% | viability, T/C [15]: 86.6% | viability, T/C [16]: 78.1% | viability, T/C [17]: 64% | viability, T/C [18]: 45.5% | viability, T/C [19]: 80.8% | viability, T/C [20]: 98.7% | viability, T/C [21]: 66.6% | viability, T/C [22]: 90.4% | viability, T/C [23]: 75.8% | viability, T/C [24]: 54.6% | viability, T/C [25]: 50.9% | viability, T/C [26]: 48.2% | viability, T/C [27]: 63.4% | viability, T/C [28]: 70.1% | viability, T/C [29]: 57.8% | viability, T/C [30]: 34% | viability, T/C [31]: 32.7% | viability, T/C [32]: 90.5% | viability, T/C [33]: 44.8% | viability, T/C [34]: 31.8% | viability, T/C [35]: 23.9% | viability, T/C [36]: 9.35%

pIC50 (second compound 0.0316 µM): 6.08 | pIC50 (second compound 0.1 µM): < 5.00 | pIC50 (second compound 0.316 µM): 5.28 | pIC50 (second compound 1 µM): > 7.50 | pIC50 (second compound 3.16 µM): > 7.50 | pIC50 (second compound 10 µM): > 7.50
Compound: CC(=O)O[C@H]1C(=O)[C@@]2(C)[C@H]([C@H](OC(=O)c3ccccc3)[C@]3(O)C[C@H](OC(=O)[C@H](O)[C@@H](NC(=O)c4ccccc4)c4ccccc4)C(C)=C1C3(C)C)[C@]1(OC(C)=O)CO[C@@H]1C[C@@H]2O + Cc1cnc(CNC(=O)c2c(=O)c3ccc(N4CCCN(C)CC4)nc3n3c2sc2ccccc23)cn1
viability, T/C [1]: 66.7% | viability, T/C [2]: 58.1% | viability, T/C [3]: 56.9% | viability, T/C [4]: 40.8% | viability, T/C [5]: 54.3% | viability, T/C [6]: 48.4% | viability, T/C [7]: 54.5% | viability, T/C [8]: 54% | viability, T/C [9]: 51.5% | viability, T/C [10]: 45.1% | viability, T/C [11]: 57.3% | viability, T/C [12]: 53.6% | viability, T/C [13]: 56.8% | viability, T/C [14]: 55.1% | viability, T/C [15]: 52.7% | viability, T/C [16]: 52.9% | viability, T/C [17]: 53.4% | viability, T/C [18]: 46.8% | viability, T/C [19]: 40.3% | viability, T/C [20]: 41.5% | viability, T/C [21]: 42.3% | viability, T/C [22]: 42.9% | viability, T/C [23]: 45.6% | viability, T/C [24]: 34% | viability, T/C [25]: 10.4% | viability, T/C [26]: 4.44% | viability, T/C [27]: 6.35% | viability, T/C [28]: 12.5% | viability, T/C [29]: 11.3% | viability, T/C [30]: 7.23% | viability, T/C [31]: 0.12% | viability, T/C [32]: 0.16% | viability, T/C [33]: 0.15% | viability, T/C [34]: 0.17% | viability, T/C [35]: 0.2% | viability, T/C [36]: 0.16%
